# Assay results as given in the supplement of paper PMC6045584.
# ± gives the standard deviation of the averaged measurements.
# Tests used:
# MK-1775 = compound: C=CCn1c(=O)c2cnc(Nc3ccc(N4CCN(C)CC4)cc3)nc2n1-c1cccc(C(C)(C)O)n1 [MK-1775]; experiment: surviving fraction relative to DMSO-only wells; higher = less growth inhibition; settings: exposure time: 5 days
# In short: (§1)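 Log-phase tumour cell lines, 250–500 cells per well in 384-well plates, received inhibitors at 0.5, 1, 5, 10, 50, 100, 500 and 1000 nM continuously for five days, starting 24 hours after seeding. Viability was quantified with CellTiter-Glo luminescence and normalised to the median of DMSO-only wells to give surviving fraction. Three screens were run per line, and a line stayed in only with replicate Pearson r >0.7 and median Z' >0.3.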
# BLEOMYCIN = compound: Cc1c(N)nc([C@H](CC(N)=O)NC[C@H](N)C(N)=O)nc1C(=O)N[C@H](C(=O)N[C@H](C)[C@@H](O)[C@H](C)C(=O)N[C@H](C(=O)NCCc1nc(-c2nc(C(=O)NCCC[S+](C)C)cs2)cs1)[C@@H](C)O)[C@@H](OC1OC(CO)C(O)C(O)C1OC1OC(CO)C(O)C(OC(N)=O)C1O)c1cnc[nH]1 [BLEOMYCIN]; experiment: as above; settings: exposure time: 5 days
# In short: as §1
Test System,surviving fraction (MK-1775; 0.5 nM),surviving fraction (MK-1775; 1 nM),surviving fraction (MK-1775; 5 nM),surviving fraction (MK-1775; 10 nM),surviving fraction (MK-1775; 50 nM),surviving fraction (MK-1775; 100 nM),surviving fraction (MK-1775; 500 nM),surviving fraction (MK-1775; 1000 nM),surviving fraction (BLEOMYCIN; 0.5 nM),surviving fraction (BLEOMYCIN; 1 nM),surviving fraction (BLEOMYCIN; 5 nM),surviving fraction (BLEOMYCIN; 10 nM),surviving fraction (BLEOMYCIN; 50 nM),surviving fraction (BLEOMYCIN; 100 nM),surviving fraction (BLEOMYCIN; 500 nM),surviving fraction (BLEOMYCIN; 1000 nM)
SG28 HEADNECK,0.987 ± 0.18,1.11 ± 0.066,1.14 ± 0.12,1.04 ± 0.046,0.698 ± 0.0084,0.549 ± 0.032,0.441 ± 0.034,0.558 ± 0.11,0.864 ± 0.081,0.917 ± 0.11,0.892 ± 0.056,0.907 ± 0.13,0.944 ± 0.074,0.899 ± 0.053,0.909 ± 0.028,0.868 ± 0.1
CME SYNOVIAL,1.36 ± 0.27,1.31 ± 0.096,1.5 ± 0.11,1.24 ± 0.13,1.45 ± 0.094,1.4 ± 0.11,1.3 ± 0.18,0.385 ± 0.025,0.718 ± 0.14,0.749 ± 0.16,0.742 ± 0.12,0.513 ± 0.081,0.265 ± 0.021,0.293 ± 0.036,0.211 ± 0.0078,0.203 ± 0.0091
MDAMB361 BREAST,0.862 ± 0.075,0.805 ± 0.039,0.875 ± 0.053,0.79 ± 0.053,0.68 ± 0.066,0.549 ± 0.047,0.478 ± 0.014,0.459 ± 0.015,0.78 ± 0.07,0.761 ± 0.13,0.698 ± 0.03,0.819 ± 0.067,0.843 ± 0.016,0.882 ± 0.046,0.838 ± 0.047,0.865 ± 0.14
HCC202 BREAST,1.137 ± 0.0059,1.13 ± 0.2,1.01 ± 0.21,0.991 ± 0.061,0.908 ± 0.17,0.712 ± 0.22,0.347 ± 0.08,0.361 ± 0.075,1.13 ± 0.17,1.18 ± 0.095,1.09 ± 0.49,1.02 ± 0.14,1.1 ± 0.11,0.992 ± 0.17,0.862 ± 0.25,0.738 ± 0.1
MCF7 BREAST,0.886 ± 0.021,0.894 ± 0.013,0.864 ± 0.0098,0.873 ± 0.042,0.869 ± 0.052,0.856 ± 0.028,0.736 ± 0.014,0.602 ± 0.035,0.816 ± 0.033,0.821 ± 0.015,0.819 ± 0.007,0.779 ± 0.05,0.829 ± 0.037,0.847 ± 0.028,0.787 ± 0.0039,0.7254 ± 0.0065
CAL72 BONE,1.06 ± 0.019,1.08 ± 0.041,1.07 ± 0.047,1.05 ± 0.023,1.11 ± 0.041,0.959 ± 0.018,0.123 ± 0.0076,0.109 ± 0.0067,1.03 ± 0.032,1.02 ± 0.028,1 ± 0.044,1 ± 0.05,1.04 ± 0.04,1.01 ± 0.037,0.694 ± 0.066,0.556 ± 0.013
HU09 BONE,1.02 ± 0.088,0.916 ± 0.096,1.009 ± 0.01,0.99 ± 0.049,0.831 ± 0.14,0.518 ± 0.045,0.06 ± 0.005,0.0393 ± 0.0049,0.805 ± 0.015,0.923 ± 0.031,0.9 ± 0.084,0.831 ± 0.058,0.883 ± 0.083,0.761 ± 0.037,0.381 ± 0.013,0.246 ± 0.028
JIMT1 BREAST,1.02 ± 0.021,0.987 ± 0.016,0.989 ± 0.01,0.991 ± 0.012,0.4405 ± 0.0039,0.227 ± 0.0077,0.0768 ± 0.0097,0.0532 ± 0.0013,0.823 ± 0.056,0.82 ± 0.043,0.842 ± 0.019,0.874 ± 0.048,0.952 ± 0.059,0.927 ± 0.028,0.825 ± 0.058,0.698 ± 0.059
SG31 HEADNECK,1.15 ± 0.19,1.03 ± 0.1,0.968 ± 0.097,0.977 ± 0.12,0.979 ± 0.14,0.789 ± 0.1,0.623 ± 0.074,0.649 ± 0.048,0.979 ± 0.12,0.924 ± 0.018,0.767 ± 0.12,0.805 ± 0.12,0.83 ± 0.046,0.733 ± 0.066,0.712 ± 0.13,0.595 ± 0.065
JURKAT HAEMATOPOIETIC AND LYMPHOID TISSUE,1.09 ± 0.017,1.11 ± 0.016,1.08 ± 0.019,1.099 ± 0.0087,0.986 ± 0.038,0.772 ± 0.036,0.039 ± 0.001,0.039,1.01 ± 0.02,1.02 ± 0.016,0.986 ± 0.016,0.977 ± 0.012,0.916 ± 0.017,0.786 ± 0.026,0.232 ± 0.0061,0.122 ± 0.0062
